From patent publication US9200011B2, “Ring constrained analogs as arginase inhibitors” (Mars, Incorporated, priority 2012, dated 2015)

Legend:
human arginase I (ARG I) = molecular target: T1, human arginase I (ARG I) (Homo sapiens, UniProt P05089); test: Inhibition of arginase I, spectrophotometric urea assay at 530 nm; format: biochemical; conditions: potency rank 1-5; pH 7.4, 37° C., 60 minutes
T1 sequence (P05089 1-322): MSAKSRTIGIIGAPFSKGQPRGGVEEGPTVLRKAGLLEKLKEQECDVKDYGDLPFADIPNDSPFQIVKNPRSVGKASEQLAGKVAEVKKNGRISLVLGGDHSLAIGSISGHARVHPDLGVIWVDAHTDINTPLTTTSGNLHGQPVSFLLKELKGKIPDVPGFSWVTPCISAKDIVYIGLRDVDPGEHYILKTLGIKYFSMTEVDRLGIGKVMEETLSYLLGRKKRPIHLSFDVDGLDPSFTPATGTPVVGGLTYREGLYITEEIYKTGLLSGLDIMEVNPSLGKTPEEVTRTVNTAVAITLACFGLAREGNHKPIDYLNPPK
Procedure: (§1) The assay established the concentration of inhibitor that is required to reduce arginase activity by 50% (IC50).
(§2) Inhibition of arginase I (ARG I) and arginase II (ARG II) by the inventive compounds is followed spectrophotometrically at 530 nm. The compound to be tested is dissolved in DMSO at an initial concentration 50-fold greater than its final concentration in the cuvette. 10 μl of the stock solution is diluted in 90 μl of the assay buffer that comprises 0.1M sodium phosphate buffer containing 130 mM NaCl, pH 7.4, to which is added ovalbumin (OVA) at a concentration of 1 mg/ml. Solutions of arginase I and II are prepared in 100 mM sodium phosphate buffer, pH 7.4 containing 1 mg/ml of OVA to give an arginase stock solution at a final concentration of 100 ng/ml.
(§3) To each well of a 96-well microtiter plate is add 40 μl of enzyme, 10 μl of an inventive compound and 10 μl of enzyme substrate (L-arginine+manganese sulfate). For wells that are used as positive controls, only the enzyme and its substrate are added, while wells used as negative controls contain only manganese sulfate.
(§4) After incubating the microtiter plate at 37° C. for 60 minutes, 150 μl of a urea reagent obtained by combining equal proportions (1:1) of reagents A and B is added to each well of the microtiter plate to stop the reaction. The urea reagent is made just before use by combining Reagent A (10 mM o-phthaldialdehyde, and 0.4% polyoxyethylene (23) lauryl ether (w/v) in 1.8 M sulfuric acid) with Reagent B (1.3 mM primaquine diphosphate, 0.4% polyoxyethylene (23) lauryl ether (w/v), 130 mM boric acid in 3.6 M sulfuric acid). After quenching the reaction mixture, the microtiter plate is allowed to stand for an additional 10 minutes at room temperature to allow color development. The inhibition of arginase is computed by measuring the optical density (OD) of the reaction mixture at 530 nm and normalizing the OD value to percent inhibition observed in the control. The normalized OD is then used to generate a dose-response curve by plotting the normalized OD values against log [concentration] and using regression analysis to compute the IC50 values.

arginase II (ARG II) = molecular target: T2, arginase II (ARG II) (Homo sapiens, UniProt P78540); test: Inhibition of arginase II, spectrophotometric urea assay at 530 nm; format: biochemical; conditions: potency rank 1-5; pH 7.4, 37° C., 60 minutes
T2 sequence (P78540 23-354): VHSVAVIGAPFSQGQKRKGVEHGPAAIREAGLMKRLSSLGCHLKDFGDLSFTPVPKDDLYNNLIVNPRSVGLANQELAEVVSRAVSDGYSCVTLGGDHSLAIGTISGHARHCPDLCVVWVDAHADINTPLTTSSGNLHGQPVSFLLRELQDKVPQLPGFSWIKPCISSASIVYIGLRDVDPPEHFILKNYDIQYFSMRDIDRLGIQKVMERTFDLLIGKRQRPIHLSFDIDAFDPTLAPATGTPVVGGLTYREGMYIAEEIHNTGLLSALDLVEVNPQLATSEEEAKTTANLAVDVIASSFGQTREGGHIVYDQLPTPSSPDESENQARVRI
Procedure: as §1, §2, §3, §4

bacterial arginase = conditions: cited from earlier work
[1] = test system: animals undergoing experimental autoimmune encephalomyelitis (EAE); conditions: mouse, in vivo; cited from earlier work
tumor bearing mice = conditions: cited from earlier work
murine chronic model = conditions: murine chronic asthma model; cited from earlier work
[2] = test system: spontaneously hypertensive rats; conditions: cited from earlier work

SMILES	IC50 (human arginase I (ARG I)) [nM]	IC50 (arginase II (ARG II)) [nM]	other results
N[C@@]1(C(=O)O)C[C@@H](CNCc2ccccc2)C[C@@H]1CCCB(O)O [Example 1, (1S,2S,4S)-1-amino-4-((benzylamino)methyl)-2-(3-boronopropyl)cyclopentanecarboxylic acid]	26 to 100	26 to 100	–
NC(=NCCC[C@H](N)C(=O)O)NO [NOHA]	–	–	CD3 expression on T-cells (bacterial arginase): reestablished; production of NO by macrophages (bacterial arginase): enhanced
NC(CCCCB(O)O)C(=O)O (stereo not shown) [ABH, amino-6-boronohexanoic acid]	–	–	severity of EAE versus control animals [1]: much milder form of EAE
O=c1[nH]cc(F)c(=O)[nH]1 [5-Fluorouracil]	–	–	MDSC immunesuppression (tumor bearing mice): eliminates; tumor growth (tumor bearing mice): delayed tumor growth
N[C@@H](CSCCB(O)O)C(=O)O [S-(2-boronoethyl)-L-cysteine]	–	–	methacholine induced responsiveness of the central airways (murine chronic model): attenuated
Nc1ccn([C@@H]2O[C@H](CO)[C@@H](O)C2(F)F)c(=O)n1 [gemcitabine]	–	–	MDSC immunesuppression (tumor bearing mice): eliminates; tumor growth (tumor bearing mice): delayed tumor growth
N=C(NO)NCC[C@H](N)C(=O)O [nor-NOHA, N^ω-hydroxy-nor-L-arginine]	–	–	vascular response of resistance vessels to blood flow and pressure ([2]; spontaneously hypertensive animals): improved; blood pressure ([2]; spontaneously hypertensive rats/animals): lowered blood pressure

Further lines, with some results ahead:

IC50 (human arginase I (ARG I)) [nM]	IC50 (arginase II (ARG II)) [nM]	SMILES	other results
101 to 500	101 to 500	N[C@@]1(C(=O)O)CCC[C@@H]1CCCB(O)O [Example 8, (1S,2S)-1-amino-2-(3-boronopropyl)cyclopentanecarboxylic acid]	–
26 to 100	101 to 500	N[C@@]1(C(=O)O)C[C@@H](CNC2Cc3ccccc3C2)C[C@@H]1CCCB(O)O [Example 3, (1S,2S,4S)-1-amino-2-(3-boronopropyl)-4-(((2,3-dihydro-1H-inden-2-yl)amino)methyl)cyclopentanecarboxylic acid]	–
101 to 500	101 to 500	N[C@@]1(C(=O)O)CNC[C@@H]1CCCB(O)O [Example 9, (3R,4S)-3-amino-4-(3-boronopropyl)pyrrolidine-3-carboxylic acid]	–
26 to 100	101 to 500	N[C@@]1(C(=O)O)C[C@@H](CNC2CCC2)C[C@@H]1CCCB(O)O [Example 5, (1S,2S,4S)-1-amino-2-(3-boronopropyl)-4-((cyclobutylamino)methyl)cyclopentanecarboxylic acid]	–
26 to 100	26 to 100	N[C@@]1(C(=O)O)C[C@@H](CNC2CCc3ccccc3C2)C[C@@H]1CCCB(O)O (stereo partly drawn) [Example 4, (1S,2S,4S)-1-amino-2-(3-boronopropyl)-4-(((1,2,3,4-tetrahydronaphthalen-2-yl)amino)methyl)cyclopentanecarboxylic acid]	–
101 to 500	101 to 500	N[C@@]1(C(=O)O)C[C@@H](CN(C2CCC2)C2CCC2)C[C@@H]1CCCB(O)O [Example 6, (1S,2S,4S)-1-amino-2-(3-boronopropyl)-4-((dicyclobutylamino)methyl)cyclopentanecarboxylic acid]	–
26 to 100	26 to 100	N[C@@]1(C(=O)O)C[C@@H](CNCc2ccc(-c3ccc(Cl)cc3)cc2)C[C@@H]1CCCB(O)O [Example 2, (1S,2S,4S)-1-amino-2-(3-boronopropyl)-4-((((4′-chloro-[1,1′-biphenyl]-4-yl)methyl)amino)methyl)cyclopentanecarboxylic acid]	–
501 to 1500	501 to 1500	CN[C@@]1(C(=O)O)CCC[C@@H]1CCCB(O)O [Example 7, (1S,2S)-2-(3-boronopropyl)-1-(methylamino) cyclopentanecarboxylic acid]	–
